Key:
TAF1-BD2 = TAF1-BD2 (Homo sapiens, UniProt P21675); assay: TAF1-BD2 TR-FRET Binding Assay; conditions: read-out: TAF1-BD2 HTRF IC50
TAF1-BD1 = TAF1-BD1 (Homo sapiens, UniProt P21675); assay: TAF1-BD1 TR-FRET Binding Assay; conditions: read-out: TAF1-BD1 HTRF IC50

SMILES | IC50 (TAF1-BD2) | IC50 (TAF1-BD1)
CCOC(=O)c1c(C)[nH]c2c(=O)n(C)cc(C#CC3(O)CCCCC3)c12 [Example 81, ethyl 4-[2-(1-hydroxycyclohexyl)ethynyl]-2,6-dimethyl-7-oxo-1H-pyrrolo[2,3-c]pyridine-3-carboxylate] | 63.2 nM | 257 nM
CCOC(=O)c1c(C)[nH]c2c(=O)n(C)cc(C#CCCO)c12 [Example 82, ethyl 4-(4-hydroxybut-1-ynyl)-2,6-dimethyl-7-oxo-1H-pyrrolo[2,3-c]pyridine-3-carboxylate] | 337 nM | 1750 nM
CCOC(=O)c1c(C)[nH]c2c(=O)n(C)cc(C#CC3(O)C(=O)N(C)c4ccccc43)c12 (stereo not drawn) [Example 86, ethyl 4-[2-(3-hydroxy-1-methyl-2-oxo-indolin-3-yl)ethynyl]-2,6-dimethyl-7-oxo-1H-pyrrolo[2,3-c]pyridine-3-carboxylate] | 98.1 nM | 581 nM
CCOC(=O)c1c(C)[nH]c2c(=O)n(C)cc(C#CC(C)(O)C3CCOCC3)c12 (stereo not drawn) [Example 87, ethyl 4-(3-hydroxy-3-tetrahydropyran-4-yl-but-1-ynyl)-2,6-dimethyl-7-oxo-1H-pyrrolo[2,3-c]pyridine-3-carboxylate] | 181 nM | 770 nM
CCOC(=O)c1c(C)[nH]c2c(=O)n(C)cc(C#CC3(O)CCOCC3)c12 [Example 88, ethyl 4-[2-(4-hydroxytetrahydropyran-4-yl)ethynyl]-2,6-dimethyl-7-oxo-1H-pyrrolo[2,3-c]pyridine-3-carboxylate] | 98.6 nM | 1110 nM
CCOC(=O)c1c(C)[nH]c2c(=O)n(C)cc(C#CC(O)(c3ccccc3)C(F)F)c12 (stereo not drawn) [Example 89, ethyl 4-(4,4-difluoro-3-hydroxy-3-phenyl-but-1-ynyl)-2,6-dimethyl-7-oxo-1H-pyrrolo[2,3-c]pyridine-3-carboxylate] | 32.9 nM | 278 nM
CCOC(=O)c1c(C)[nH]c2c(=O)n(C)cc(C#CC(O)(c3cccc(Oc4ccccc4)c3)C(F)(F)F)c12 (stereo not drawn) [Example 90, ethyl 2,6-dimethyl-7-oxo-4-[4,4,4-trifluoro-3-hydroxy-3-(3-phenoxyphenyl)but-1-ynyl]-1H-pyrrolo[2,3-c]pyridine-3-carboxylate] | 699 nM | 2280 nM
CCOC(=O)c1c(C)[nH]c2c(=O)n(C)cc(C#CC(O)(c3cccc(-c4cccnc4)c3)C(F)(F)F)c12 (stereo not drawn) [Example 100, ethyl 2,6-dimethyl-7-oxo-4-[4,4,4-trifluoro-3-hydroxy-3-[3-(3-pyridyl)phenyl]but-1-ynyl]-1H-pyrrolo[2,3-c]pyridine-3-carboxylate] | 27.3 nM | 189 nM
CCOC(=O)c1c(C)[nH]c2c(=O)n(C)cc(C#CC(O)(c3cccc(-c4ccccc4OC)c3)C(F)(F)F)c12 (stereo not drawn) [Example 101, ethyl 2,6-dimethyl-7-oxo-4-[4,4,4-trifluoro-3-hydroxy-3-[3-(2-methoxyphenyl)phenyl]but-1-ynyl]-1H-pyrrolo[2,3-c]pyridine-3-carboxylate] | 608 nM | 4330 nM
CCOC(=O)c1c(C)[nH]c2c(=O)n(C)cc(C#CC(O)(c3cccc(-c4ccccc4C)c3)C(F)(F)F)c12 (stereo not drawn) [Example 102, ethyl 2,6-dimethyl-7-oxo-4-[4,4,4-trifluoro-3-hydroxy-3-[3-(o-tolyl)phenyl]but-1-ynyl]-1H-pyrrolo[2,3-c]pyridine-3-carboxylate] | 912 nM | 7510 nM
Cc1[nH]c2c(=O)n(C)cc(C#CC(C)(C)O)c2c1C(=O)OCc1ccccc1 [Example 103, Benzyl 4-(3-hydroxy-3-methyl-but-1-ynyl)-2,6-dimethyl-7-oxo-1H-pyrrolo[2,3-c]pyridine-3-carboxylate] | 34.5 nM | 151 nM
Cc1[nH]c2c(=O)n(C)cc(C#CC(O)(c3ccccc3)C(F)(F)F)c2c1C(=O)OC(C)c1ccccc1 (stereo not drawn) [Example 104, 1-phenylethyl 2,6-dimethyl-7-oxo-4-(4,4,4-trifluoro-3-hydroxy-3-phenyl-but-1-ynyl)-1H-pyrrolo[2,3-c]pyridine-3-carboxylate] | 1200 nM | 3210 nM
Cc1[nH]c2c(=O)n(C)cc(C#CC(C)(O)C3CC3)c2c1C(=O)OCc1cccc2cccnc12 (stereo not drawn) [Example 105, 8-quinolylmethyl 4-(3-cyclopropyl-3-hydroxy-but-1-ynyl)-2,6-dimethyl-7-oxo-1H-pyrrolo[2,3-c]pyridine-3-carboxylate] | 34.6 nM | 93.9 nM
Cc1[nH]c2c(=O)n(C)cc(C#CC(O)(c3ccccc3)C(F)(F)F)c2c1C(=O)OCc1ccccc1C#N (stereo not drawn) [Example 107, (2-cyanophenyl)methyl 2,6-dimethyl-7-oxo-4-(4,4,4-trifluoro-3-hydroxy-3-phenyl-but-1-ynyl)-1H-pyrrolo[2,3-c]pyridine-3-carboxylate] | 344 nM | 1630 nM
Cc1ccccc1COC(=O)c1c(C)[nH]c2c(=O)n(C)cc(C#CC(O)(c3ccccc3)C(F)(F)F)c12 (stereo not drawn) [Example 108, o-tolylmethyl 2,6-dimethyl-7-oxo-4-(4,4,4-trifluoro-3-hydroxy-3-phenyl-but-1-ynyl)-1H-pyrrolo[2,3-c]pyridine-3-carboxylate] | 1260 nM | 3350 nM
Cc1[nH]c2c(=O)n(C)cc(C#CC(C)(O)C3CC3)c2c1C(=O)OCc1nccs1 (stereo not drawn) [Example 109, thiazol-2-ylmethyl 4-(3-cyclopropyl-3-hydroxy-but-1-ynyl)-2,6-dimethyl-7-oxo-1H-pyrrolo[2,3-c]pyridine-3-carboxylate] | 67.9 nM | 222 nM
Cc1[nH]c2c(=O)n(C)cc(C#CC(C)(C)O)c2c1C(=O)OCc1ccccc1C#N [Example 110, (2-cyanophenyl)methyl 4-(3-hydroxy-3-methyl-but-1-ynyl)-2,6-dimethyl-7-oxo-1H-pyrrolo[2,3-c]pyridine-3-carboxylate] | 29.4 nM | 116 nM
Cc1[nH]c2c(=O)n(C)cc(C#CC(C)(C)O)c2c1C(=O)OCc1ccccc1CO [Example 111, [2-(hydroxymethyl)phenyl]methyl 4-(3-hydroxy-3-methyl-but-1-ynyl)-2,6-dimethyl-7-oxo-1H-pyrrolo[2,3-c]pyridine-3-carboxylate] | 37.9 nM | 259 nM
Cc1[nH]c2c(=O)n(C)cc(C#CC(C)(C)O)c2c1C(=O)OCc1ccncc1 [Example 112, 4-pyridylmethyl 4-(3-hydroxy-3-methyl-but-1-ynyl)-2,6-dimethyl-7-oxo-1H-pyrrolo[2,3-c]pyridine-3-carboxylate] | 610 nM | 4620 nM
COc1ccccc1COC(=O)c1c(C)[nH]c2c(=O)n(C)cc(C#CC(C)(C)O)c12 [Example 113, (2-methoxyphenyl)methyl-4-(3-hydroxy-3-methyl-but-1-ynyl)-2,6-dimethyl-7-oxo-1H-pyrrolo[2,3-c]pyridine-3-carboxylate] | 24 nM | 123 nM
Cc1[nH]c2c(=O)n(C)cc(C#CC(C)(C)O)c2c1C(=O)OCc1ccccn1 [Example 115, 2-pyridylmethyl 4-(3-hydroxy-3-methyl-but-1-ynyl)-2,6-dimethyl-7-oxo-1H-pyrrolo[2,3-c]pyridine-3-carboxylate] | 34.1 nM | 282 nM
Cc1[nH]c2c(=O)n(C)cc(C#CC(C)(C)O)c2c1C(=O)OCc1ccccc1C(F)(F)F [Example 116, [2-(trifluoromethyl)phenyl]methyl 4-(3-hydroxy-3-methyl-but-1-ynyl)-2,6-dimethyl-7-oxo-1H-pyrrolo[2,3-c]pyridine-3-carboxylate] | 27.7 nM | 105 nM
Cc1cccc(COC(=O)c2c(C)[nH]c3c(=O)n(C)cc(C#CC(C)(C)O)c23)c1 [Example 118, m-tolylmethyl 4-(3-hydroxy-3-methyl-but-1-ynyl)-2,6-dimethyl-7-oxo-1H-pyrrolo[2,3-c]pyridine-3-carboxylate] | 38.9 nM | 167 nM
Cc1[nH]c2c(=O)n(C)cc(C#CC(C)(C)O)c2c1C(=O)OCc1ccccc1F [Example 119, (2-fluorophenyl)methyl 4-(3-hydroxy-3-methyl-but-1-ynyl)-2,6-dimethyl-7-oxo-1H-pyrrolo[2,3-c]pyridine-3-carboxylate] | 26.7 nM | 145 nM
Cc1[nH]c2c(=O)n(C)cc(C#CC(C)(C)O)c2c1C(=O)OC(C)c1ccccc1 (stereo not drawn) [Example 120, 1-phenylethyl 4-(3-hydroxy-3-methyl-but-1-ynyl)-2,6-dimethyl-7-oxo-1H-pyrrolo[2,3-c]pyridine-3-carboxylate] | 83.2 nM | 260 nM
Cc1ccccc1COC(=O)c1c(C)[nH]c2c(=O)n(C)cc(C#CC(C)(C)O)c12 [Example 121, o-tolylmethyl 4-(3-hydroxy-3-methyl-but-1-ynyl)-2,6-dimethyl-7-oxo-1H-pyrrolo[2,3-c]pyridine-3-carboxylate] | 21.5 nM | 85 nM
C=CCCn1cc(C#CC(C)(O)C2CC2)c2c(C(=O)OCC(C)C)c(C)[nH]c2c1=O (stereo not drawn) [Example 122, isobutyl 6-but-3-enyl-4-(3-cyclopropyl-3-hydroxy-but-1-ynyl)-2-methyl-7-oxo-1H-pyrrolo[2,3-c]pyridine-3-carboxylate] | 116 nM | 1710 nM
C=CCCn1cc(C#C[C@@](C)(O)c2cc(C)on2)c2c(C(=O)OCc3ccccc3C)c(C)[nH]c2c1=O [Example 123, o-tolylmethyl 6-but-3-enyl-4-[(3R)-3-hydroxy-3-(5-methylisoxazol-3-yl)but-1-ynyl]-2-methyl-7-oxo-1H-pyrrolo[2,3-c]pyridine-3-carboxylate] | 243 nM | > 20000 nM
C=CCCn1cc(C#CC(C)(C)O)c2c(C(=O)OCc3ccccc3C)c(C)[nH]c2c1=O [Example 124, o-tolylmethyl 6-but-3-enyl-4-(3-hydroxy-3-methyl-but-1-ynyl)-2-methyl-7-oxo-1H-pyrrolo[2,3-c]pyridine-3-carboxylate] | 59.7 nM | > 20000 nM
C=CCCn1cc(C#C[C@@](C)(O)c2cc(C)on2)c2c(C(=O)OCC(C)C)c(C)[nH]c2c1=O [Example 125, isobutyl 6-but-3-enyl-4-[(3R)-3-hydroxy-3-(5-methylisoxazol-3-yl)but-1-ynyl]-2-methyl-7-oxo-1H-pyrrolo[2,3-c]pyridine-3-carboxylate] | 169 nM | 3050 nM
